In publication PMC6001238, “Iterative Chemical Engineering of Vancomycin Leads to Novel Vancomycin Analogs With a High in Vitro Therapeutic Index” (Frontiers in Microbiology, 2018):
In brackets after ≈: the same amount, converted by molar mass.

Assays:
E. faecalis VSE 1 = assay: MIC, broth microdilution, vancomycin-sensitive E. faecalis (VSE 1); format: cell-based, Enterococcus faecalis; details: for MIC: Enterococcus faecalis VSE 1 (vancomycin-sensitive), read-out: MIC; for MIC-fold improvement vs. vancomycin: VSE 1, ratio of MIC of vancomycin and MIC of analogue
Summary of the method: (§1)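 CLSI broth microdilution; water and uninoculated-broth controls; one arm supplemented with vancomycin, final 10 μM, given with analogue or control antibiotic.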

E. faecalis VRE 6 = assay: MIC, broth microdilution, vancomycin-resistant E. faecalis VRE 6 (VanA); format: cell-based, Enterococcus faecalis; details: for MIC: Enterococcus faecalis VRE 6 (vancomycin-resistant), read-out: MIC; for MIC-fold improvement vs. vancomycin: VRE 6, ratio of MIC of vancomycin and MIC of analogue
Summary of the method: as §1

E. faecalis VRE 53 = assay: MIC, broth microdilution, vancomycin-resistant E. faecalis VRE 53 (VanA); format: cell-based, Enterococcus faecalis; details: for MIC: Enterococcus faecalis VRE 53 (vancomycin-resistant), read-out: MIC; for MIC-fold improvement vs. vancomycin: VRE 53, ratio of MIC of vancomycin and MIC of analogue
Summary of the method: as §1

E. faecalis VRE 29 = assay: MIC, broth microdilution, vancomycin-resistant E. faecalis VRE 29 (VanA); format: cell-based, Enterococcus faecalis; details: for MIC: Enterococcus faecalis VRE 29 (vancomycin-resistant), read-out: MIC; for MIC-fold improvement vs. vancomycin: VRE 29, ratio of MIC of vancomycin and MIC of analogue
Summary of the method: as §1

E. faecalis VRE 37 = assay: MIC, broth microdilution, vancomycin-resistant E. faecalis VRE 37 (VanA); format: cell-based, Enterococcus faecalis; details: for MIC: Enterococcus faecalis VRE 37 (vancomycin-resistant), read-out: MIC
Summary of the method: as §1

[1] = test system: Murine leukemia (L1210) cells; assay: Cytostatic activity, L1210 cell proliferation; format: cell-based; details: mean ± SD of three experiments; highest concentration tested 250 µM; 2 days; read-out: Toxicity (IC50) L1210
Summary of the method: (§2)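 Coulter counter cell counts after 37°C culture with compound; IC50 = concentration giving 50% growth inhibition vs negative control. Incubation: L1210 2 d, CEM 3 d, HeLa 4 d. Suspension density before mixing with an equal volume of dilution: 300,000–500,000 cells/mL.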

[2] = test system: human T-lymphocyte (CEM) cells; assay: Cytostatic activity, CEM cell proliferation; format: cell-based; details: mean ± SD of three experiments; highest concentration tested 250 µM; 3 days; read-out: Toxicity (IC50) CEM
Summary of the method: as §2

[3] = test system: human cervix carcinoma (HeLa) cells; assay: Cytostatic activity, HeLa cell proliferation; format: cell-based; details: mean ± SD of three experiments; highest concentration tested 250 µM; 4 days; read-out: Toxicity (IC50) HeLa
Summary of the method: as §2

[4] = test system: L1210, CEM and HeLa cell lines; assay: Cytostatic activity, average or summary over L1210, CEM and HeLa; format: cell-based; details: average of L1210, CEM and HeLa; read-out: Toxicity (IC50) Average
Summary of the method: as §2

[5] = test system: S. aureus VSSA (ATCC 6538); assay: MIC, broth microdilution, vancomycin-sensitive S. aureus (VSSA/MSSA, ATCC 6538); format: cell-based, Staphylococcus aureus; details: for MIC: Staphylococcus aureus VSSA, read-out: MIC; for MIC-fold improvement vs. vancomycin: VSSA, ratio of MIC of vancomycin and MIC of analogue
Summary of the method: as §1

S. aureus VISA/HIP5827 = assay: MIC, broth microdilution, vancomycin-intermediate S. aureus VISA HIP5827; format: cell-based, Staphylococcus aureus; details: for MIC: Staphylococcus aureus VISA/HIP5827, read-out: MIC; for MIC-fold improvement vs. vancomycin: VISA/HIP5827, ratio of MIC of vancomycin and MIC of analogue
Summary of the method: as §1

S. aureus VRSA = assay: MIC, broth microdilution, vancomycin-resistant S. aureus (VRSA); format: cell-based, Staphylococcus aureus; details: for MIC: Staphylococcus aureus VRSA, read-out: MIC; for MIC-fold improvement vs. vancomycin: VRSA, ratio of MIC of vancomycin and MIC of analogue
Summary of the method: as §1

MRSA KS2 = assay: MIC, broth microdilution, MRSA KS2; format: cell-based, Staphylococcus aureus; details: for MIC-fold improvement vs. vancomycin: MRSA KS2, ratio of MIC of vancomycin and MIC of analogue; for MIC: Staphylococcus aureus MRSA KS2, read-out: MIC
Summary of the method: as §1

MRSA KS6 = assay: MIC, broth microdilution, MRSA KS6; format: cell-based, Staphylococcus aureus; details: for MIC-fold improvement vs. vancomycin: MRSA KS6, ratio of MIC of vancomycin and MIC of analogue; for MIC: Staphylococcus aureus MRSA KS6, read-out: MIC
Summary of the method: as §1

MRSA KS89 = assay: MIC, broth microdilution, MRSA KS89; format: cell-based, Staphylococcus aureus; details: for MIC-fold improvement vs. vancomycin: MRSA KS8, ratio of MIC of vancomycin and MIC of analogue; for MIC: Staphylococcus aureus MRSA KS8, read-out: MIC
Summary of the method: as §1

MRSA KS1 = assay: MIC, broth microdilution, MRSA KS1; format: cell-based, Staphylococcus aureus; details: for MIC-fold improvement vs. vancomycin: MRSA KS1, ratio of MIC of vancomycin and MIC of analogue; for MIC: Staphylococcus aureus MRSA KS1, read-out: MIC
Summary of the method: as §1

Row | MIC (E. faecalis VSE 1) [µM] | MIC-fold improvement vs. vancomycin (E. faecalis VSE 1) | MIC (E. faecalis VRE 6) [µM] | MIC-fold improvement vs. vancomycin (E. faecalis VRE 6) | MIC (E. faecalis VRE 53) [µM] | MIC-fold improvement vs. vancomycin (E. faecalis VRE 53) | MIC (E. faecalis VRE 29) [µM] | MIC-fold improvement vs. vancomycin (E. faecalis VRE 29) | MIC (E. faecalis VRE 37) [µM] | MIC [5] [µM] | MIC-fold improvement vs. vancomycin [5] | MIC (S. aureus VISA/HIP5827) [µM] | MIC-fold improvement vs. vancomycin (S. aureus VISA/HIP5827) | MIC (S. aureus VRSA) [µM] | MIC-fold improvement vs. vancomycin (S. aureus VRSA) | MIC-fold improvement vs. vancomycin (MRSA KS2) | SMILES | IC50 [1] [µM] | IC50 [2] [µM] | IC50 [3] [µM] | IC50 [4] [µM] | also measured
1 | 0.39 (≈ 0.655 µg/mL) | 4 | 6.25 (≈ 10.5 µg/mL) | 32 | 6.25 (≈ 10.5 µg/mL) | 64 | 6.25 (≈ 10.5 µg/mL) | 64 | 6.25 (≈ 10.5 µg/mL) | 0.20 (≈ 0.336 µg/mL) | 4 | 0.39 (≈ 0.655 µg/mL) | 16 | 0.39 (≈ 0.655 µg/mL) | 256 | 4 | CCCCCc1ccc(C(=O)NCCCNC(=O)C2NC(=O)C3NC(=O)C(NC(=O)C4NC(=O)C(CC(N)=O)NC(=O)C(NC(=O)C(CC(C)C)NC)C(O)c5ccc(c(Cl)c5)Oc5cc4cc(c5OC4OC(CO)C(O)C(O)C4OC4CC(C)(N)C(O)C(C)O4)Oc4ccc(cc4Cl)C3O)c3ccc(O)c(c3)-c3c(O)cc(O)cc32)cc1 (stereo not shown) [Vanc-49] | 63 ± 8 | 36 ± 8 | 99 ± 1 | 66 | MIC-fold improvement vs. vancomycin (E. faecalis VRE 37; VRE 37, ratio of MIC of vancomycin and MIC of analogue): 64; MIC (MRSA KS2): 0.20 µM (≈ 0.336 µg/mL); MIC-fold improvement vs. vancomycin (MRSA KS6): 4; MIC (MRSA KS6): 0.20 µM (≈ 0.336 µg/mL); MIC-fold improvement vs. vancomycin (MRSA KS89): 4; MIC (MRSA KS89): 0.20 µM (≈ 0.336 µg/mL); MIC-fold improvement vs. vancomycin (MRSA KS1): >8; MIC (MRSA KS1): <0.10 µM
2 | 0.39 (≈ 0.656 µg/mL) | 4 | 6.25 (≈ 10.5 µg/mL) | 32 | 12.5 (≈ 21 µg/mL) | 32 | 12.5 (≈ 21 µg/mL) | 32 | 12.5 (≈ 21 µg/mL) | 0.39 (≈ 0.656 µg/mL) | 2 | 0.78 (≈ 1.31 µg/mL) | 8 | 0.78 (≈ 1.31 µg/mL) | 128 | 4 | CCCCOc1ccc(C(=O)NCCCNC(=O)C2NC(=O)C3NC(=O)C(NC(=O)C4NC(=O)C(CC(N)=O)NC(=O)C(NC(=O)C(CC(C)C)NC)C(O)c5ccc(c(Cl)c5)Oc5cc4cc(c5OC4OC(CO)C(O)C(O)C4OC4CC(C)(N)C(O)C(C)O4)Oc4ccc(cc4Cl)C3O)c3ccc(O)c(c3)-c3c(O)cc(O)cc32)cc1 (stereo not shown) [Vanc-50] | > 250 | 86 ± 2 | 96 ± 4 | 144 | MIC (MRSA KS2): 0.20 µM (≈ 0.336 µg/mL); MIC-fold improvement vs. vancomycin (MRSA KS6): 2; MIC (MRSA KS6): 0.39 µM (≈ 0.656 µg/mL); MIC-fold improvement vs. vancomycin (MRSA KS89): 2; MIC (MRSA KS89): 0.39 µM (≈ 0.656 µg/mL); MIC-fold improvement vs. vancomycin (MRSA KS1): 4; MIC (MRSA KS1): 0.20 µM (≈ 0.336 µg/mL)
